Experiment [1] has as its system Phosphorylated Ribosomal Protein S6 (RPS6) in THP-1 cells. Briefly: THP-1 RPS6 ELISA assay. It is filed as cell-based, Human. The conditions noted are these: Table A3, THP-1 cells, 10 nM MCP-1, phospho-RPS6 ELISA, read-out: PI3Kγ_THP1_RPS6_ELISA IC50. An excerpt:
Example A. THP-1 RPS6 ELISA Assay
To measure the Phosphorylated Ribosomal Protein S6 (RPS6) in cell lysates, THP-1 cells (Human Acute Monocytic Leukemia) are purchased from ATCC (Manassas, VA) and maintained in RPMI with 10% FBS (Gibco/Life Technologies, Carlsbad, CA). For the assay, THP-1 cells are serum starved overnight in RPMI, then plated in RPMI (2×10^5 cells/well in […]) into 96-well flat-bottom tissue culture treated plates (Corning, Corning, NY), in the presence or absence of a concentration range of test compounds. Covered plates are incubated for 2 hours at 37° C., 5% CO2 then treated with or without 10 nM MCP-1(MYBioSource, San Diego, CA) for 15 minutes at 37° C., 5% CO2. Plates are centrifuged at 1600 RPM and supernatants are removed. Cells are lysed in Lysis Buffer (Cell Signaling, Danvers, MA) with Protease Inhibitor (Calbiochem/EMD, Germany), PMSF (Sigma, St Louis MO), HALTS (Thermo Fisher, Rockford, IL) for 30 min on wet ice. Cell lysates are frozen at −80° C. before testing. The lysates are tested in the Human/Mouse/Rat Phospho-RPS6 ELISA (R&D Systems, Inc. Minn, MN). The plate is measured using a microplate reader (SpectraMax M5—Molecular Devices, LLC Sunnyvale, CA) set to 450 nm with a wavelength correction of 540. IC50 determination is performed by fitting the curve of inhibitor percent inhibition versus the log of the inhibitor concentration using the GraphPad Prism 5.0 software.
The compounds of the Examples were tested in the assays described in Examples A, B and C and found to have the IC50s are shown in Tables A1, A2, A3 and A4.
In general terms: ELISA stands for enzyme-linked immunosorbent assay.

Experiment [2] concerns the target PI3Kδ (p1106/p85a) Recombinant Human Protein (Homo sapiens (Human), UniProt O00329). The experiment is described as follows: PI3Kδ scintillation proximity assay. Format: biochemical. A general note: In a scintillation proximity assay essentially only radioactivity close to the scintillant gives light.
Experiment [3] concerns the target PI3Kγ (p110γ) Recombinant Human Protein (Homo sapiens (Human), UniProt P48736). The experiment is described as follows: PI3K-γ scintillation proximity assay. Format: biochemical.
[4] abbreviates: Table A3, scintillation proximity assay, recombinant human PI3Kδ.
Setting [5] is: Table A3, scintillation proximity assay, recombinant human p110γ.

Results on 20 compounds are retold here after US20250388553A1 (Incyte Corporation, priority 2018, published 2025).

Counter-ions that a name gives are not always drawn. Like-named read-outs stand apart in the source and are kept apart here.

Chain of PI3Kγ (p110γ) Recombinant Human Protein (P48736 whole entry): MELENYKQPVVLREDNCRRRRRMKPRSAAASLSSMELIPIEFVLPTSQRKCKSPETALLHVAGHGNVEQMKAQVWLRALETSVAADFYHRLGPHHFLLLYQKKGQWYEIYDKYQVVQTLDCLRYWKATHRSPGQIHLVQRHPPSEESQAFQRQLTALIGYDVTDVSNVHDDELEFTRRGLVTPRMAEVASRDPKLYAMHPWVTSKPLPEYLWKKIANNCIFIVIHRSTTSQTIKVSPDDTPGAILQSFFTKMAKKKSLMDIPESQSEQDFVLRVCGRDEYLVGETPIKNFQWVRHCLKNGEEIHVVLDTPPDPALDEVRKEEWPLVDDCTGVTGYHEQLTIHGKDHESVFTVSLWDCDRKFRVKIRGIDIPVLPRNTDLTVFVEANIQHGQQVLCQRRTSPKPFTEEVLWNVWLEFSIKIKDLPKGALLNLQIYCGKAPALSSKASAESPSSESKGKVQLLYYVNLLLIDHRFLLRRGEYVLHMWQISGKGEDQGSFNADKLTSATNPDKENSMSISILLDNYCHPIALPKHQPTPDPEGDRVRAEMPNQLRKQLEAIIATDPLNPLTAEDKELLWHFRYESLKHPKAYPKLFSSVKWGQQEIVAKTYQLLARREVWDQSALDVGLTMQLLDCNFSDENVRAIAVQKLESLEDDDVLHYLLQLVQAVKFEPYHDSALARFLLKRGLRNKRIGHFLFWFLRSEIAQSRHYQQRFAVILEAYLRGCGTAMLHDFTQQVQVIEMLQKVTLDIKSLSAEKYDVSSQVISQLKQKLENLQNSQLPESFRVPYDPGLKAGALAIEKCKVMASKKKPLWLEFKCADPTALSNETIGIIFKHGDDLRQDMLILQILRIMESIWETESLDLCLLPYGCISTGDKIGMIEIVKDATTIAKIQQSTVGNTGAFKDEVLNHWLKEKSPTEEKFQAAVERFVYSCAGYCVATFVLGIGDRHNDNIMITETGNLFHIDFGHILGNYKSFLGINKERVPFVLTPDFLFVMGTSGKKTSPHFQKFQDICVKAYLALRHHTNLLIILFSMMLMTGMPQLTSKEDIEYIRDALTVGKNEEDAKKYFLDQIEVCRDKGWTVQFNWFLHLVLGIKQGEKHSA
Chain of PI3Kδ (p1106/p85a) Recombinant Human Protein (O00329 whole entry): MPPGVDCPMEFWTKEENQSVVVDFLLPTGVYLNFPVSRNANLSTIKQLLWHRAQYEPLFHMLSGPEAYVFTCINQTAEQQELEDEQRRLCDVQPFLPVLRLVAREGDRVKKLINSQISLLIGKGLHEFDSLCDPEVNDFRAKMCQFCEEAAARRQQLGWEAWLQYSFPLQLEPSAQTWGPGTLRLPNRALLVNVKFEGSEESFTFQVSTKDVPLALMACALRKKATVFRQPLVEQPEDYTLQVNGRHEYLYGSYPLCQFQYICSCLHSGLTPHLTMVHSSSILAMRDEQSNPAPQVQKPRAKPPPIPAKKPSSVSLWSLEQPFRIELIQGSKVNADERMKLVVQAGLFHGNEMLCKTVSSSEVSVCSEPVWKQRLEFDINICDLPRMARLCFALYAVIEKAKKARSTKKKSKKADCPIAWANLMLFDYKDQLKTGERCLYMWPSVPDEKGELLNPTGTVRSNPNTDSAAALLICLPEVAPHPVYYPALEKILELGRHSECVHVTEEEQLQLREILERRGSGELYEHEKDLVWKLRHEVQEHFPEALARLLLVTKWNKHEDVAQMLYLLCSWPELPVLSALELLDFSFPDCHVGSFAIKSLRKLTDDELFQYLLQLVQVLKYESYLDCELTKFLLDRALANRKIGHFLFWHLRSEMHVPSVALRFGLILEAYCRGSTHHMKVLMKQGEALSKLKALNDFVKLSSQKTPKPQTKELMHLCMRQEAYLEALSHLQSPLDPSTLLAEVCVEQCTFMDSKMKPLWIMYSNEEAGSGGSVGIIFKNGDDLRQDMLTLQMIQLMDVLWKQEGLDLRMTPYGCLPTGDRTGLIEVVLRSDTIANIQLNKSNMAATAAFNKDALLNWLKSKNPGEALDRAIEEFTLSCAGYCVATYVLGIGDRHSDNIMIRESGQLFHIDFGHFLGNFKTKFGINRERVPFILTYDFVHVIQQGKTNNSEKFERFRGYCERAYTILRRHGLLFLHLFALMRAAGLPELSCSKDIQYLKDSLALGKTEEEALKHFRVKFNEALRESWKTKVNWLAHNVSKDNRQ
Chain of PI3Kδ (p1106/p85a) Recombinant Human Protein (P27986 whole entry partner): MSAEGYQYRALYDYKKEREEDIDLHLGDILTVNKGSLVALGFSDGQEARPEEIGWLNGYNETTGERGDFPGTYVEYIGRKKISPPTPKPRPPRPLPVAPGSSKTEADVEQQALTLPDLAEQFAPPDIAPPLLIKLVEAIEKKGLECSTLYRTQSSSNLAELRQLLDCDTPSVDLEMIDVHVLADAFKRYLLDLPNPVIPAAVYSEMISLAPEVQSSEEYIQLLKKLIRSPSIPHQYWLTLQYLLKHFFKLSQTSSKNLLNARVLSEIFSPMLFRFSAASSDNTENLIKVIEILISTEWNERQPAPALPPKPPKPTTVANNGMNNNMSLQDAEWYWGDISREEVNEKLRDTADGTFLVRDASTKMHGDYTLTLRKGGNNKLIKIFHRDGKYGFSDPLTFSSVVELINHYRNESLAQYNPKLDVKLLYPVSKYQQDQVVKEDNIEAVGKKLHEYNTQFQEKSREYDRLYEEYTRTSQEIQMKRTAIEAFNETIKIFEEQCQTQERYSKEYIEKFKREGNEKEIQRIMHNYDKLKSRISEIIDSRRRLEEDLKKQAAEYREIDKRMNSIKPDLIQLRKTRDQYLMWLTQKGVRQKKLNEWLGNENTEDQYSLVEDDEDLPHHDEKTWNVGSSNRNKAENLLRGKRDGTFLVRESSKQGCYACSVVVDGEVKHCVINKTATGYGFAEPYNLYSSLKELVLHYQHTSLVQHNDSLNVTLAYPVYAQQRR

On to `Cc1ccc(C(O)(C(N)=O)C(F)(F)F)cc1-c1cnc(N)c(-c2cnn(C)c2)n1` (stereo not drawn) [Example 71, 2-(3-(5-amino-6-(1-methyl-1H-pyrazol-4-yl)pyrazin-2-yl)-4-methylphenyl)-3,3,3-trifluoro-2-hydroxypropanamide trifluoroacetate], for which the half-maximal inhibitory concentration (IC50) in experiment [1] (Homo sapiens), in experiment [2] (setting [4]) and in experiment [3] (setting [5]) was less than 100 nM each time.
Consider `Cc1ccc(C(O)(C(N)=O)C(F)(F)F)cc1-c1cnc(N)c(-c2cnn(C)n2)n1` (stereo not drawn) [Example 73, 2-(3-(5-amino-6-(2-methyl-2H-1,2,3-triazol-4-yl)pyrazin-2-yl)-4-methylphenyl)-3,3,3-trifluoro-2-hydroxypropanamide trifluoroacetate], for which the IC50 in experiment [1] (Homo sapiens), in experiment [2] (setting [4]) and in experiment [3] (setting [5]) was less than 100 nM in each case.
`Cc1ccc(C(O)(C(N)=O)C(F)(F)F)cc1-c1cnc(N)c(-c2cnnn2C)n1` (stereo not drawn) [Example 74, 2-(3-(5-amino-6-(1-methyl-1H-1,2,3-triazol-5-yl)pyrazin-2-yl)-4-methylphenyl)-3,3,3-trifluoro-2-hydroxypropanamide trifluoroacetate]: the IC50 in experiment [1] (Homo sapiens), in experiment [2] (setting [4]) and in experiment [3] (setting [5]) was less than 100 nM each time.
Take `Cc1ccc(C(O)(C(N)=O)C(F)(F)F)cc1-c1cnc(N)c(-c2cnn(CC(F)(F)F)c2)n1` (stereo not drawn) [Example 75, 2-(3-(5-amino-6-(1-(2,2,2-trifluoroethyl)-1H-pyrazol-4-yl)pyrazin-2-yl)-4-methylphenyl)-3,3,3-trifluoro-2-hydroxypropanamide trifluoroacetate]: the 50% inhibitory concentration (IC50) in experiment [1] (Homo sapiens), in experiment [2] (setting [4]) and in experiment [3] (setting [5]) was less than 100 nM in each case.
Regarding `Cc1ccc(C(O)(C(N)=O)C(F)(F)F)cc1-c1cnc(N)c(-c2cnn(C(C)(C)C#N)c2)n1` (stereo not drawn) [Example 76, 2-(3-(5-amino-6-(1-(2-cyanopropan-2-yl)-1H-pyrazol-4-yl)pyrazin-2-yl)-4-methylphenyl)-3,3,3-trifluoro-2-hydroxypropanamide trifluoroacetate], the IC50 in experiment [1] (Homo sapiens), in experiment [2] (setting [4]) and in experiment [3] (setting [5]) was less than 100 nM throughout.
As for `Cc1ccc(C(O)(C(N)=O)C(F)(F)F)cc1-c1cnc(N)c(-c2cnn(C3CCOCC3)c2)n1` (stereo not drawn) [Example 77, 2-(3-(5-amino-6-(1-(tetrahydro-2H-pyran-4-yl)-1H-pyrazol-4-yl)pyrazin-2-yl)-4-methylphenyl)-3,3,3-trifluoro-2-hydroxypropanamide trifluoroacetate], the half-inhibitory concentration (IC50) in experiment [1] (Homo sapiens), in experiment [2] (setting [4]) and in experiment [3] (setting [5]) was less than 100 nM in each case.
Regarding `Cc1ccc(C(O)(C(N)=O)C(F)(F)F)cc1-c1cnc(N)c(-c2cnn(CC3(C#N)CC3)c2)n1` (stereo not drawn) [Example 78, 2-(3-(5-amino-6-(1-((1-cyanocyclopropyl)methyl)-1H-pyrazol-4-yl)pyrazin-2-yl)-4-methylphenyl)-3,3,3-trifluoro-2-hydroxypropanamide trifluoroacetate], the IC50 in experiment [1] (Homo sapiens), in experiment [2] and in experiment [3] was less than 100 nM throughout.
As to `COCCn1cc(-c2nc(-c3cc(C(O)(C(N)=O)C(F)(F)F)ccc3C)cnc2N)cn1` (stereo not drawn) [Example 79, 2-(3-(5-amino-6-(1-(2-methoxyethyl)-1H-pyrazol-4-yl)pyrazin-2-yl)-4-methylphenyl)-3,3,3-trifluoro-2-hydroxypropanamide trifluoroacetate], the IC50 in experiment [1] (Homo sapiens), in experiment [2] (setting [4]) and in experiment [3] (setting [5]) was less than 100 nM each time.
For `CNC(=O)c1ccc(-c2nc(-c3cc(C(O)(C(N)=O)C(F)(F)F)ccc3C)cnc2N)cn1` (stereo not drawn) [Example 80, 5-(3-amino-6-(5-(3-amino-1,1,1-trifluoro-2-hydroxy-3-oxopropan-2-yl)-2-methylphenyl)pyrazin-2-yl)-N-methylpicolinamide bistrifluoroacetate], the IC50 in experiment [1] (Homo sapiens) is 500 to 1000 nM; in experiment [2] (setting [4]), 100 to 500 nM; in experiment [3] (setting [5]) it was less than 100 nM.
Regarding `Cc1ccc(C(O)(C(N)=O)C(F)(F)F)cc1-c1cnc(N)c(-c2cncnc2)n1` (stereo not drawn) [Example 81, 2-(3-(5-amino-6-(pyrimidin-5-yl)pyrazin-2-yl)-4-methylphenyl)-3,3,3-trifluoro-2-hydroxypropanamide trifluoroacetate], the IC50 is 100 to 500 nM in experiment [1] (Homo sapiens), 100 to 500 nM in experiment [2] (setting [4]) and less than 100 nM in experiment [3] (setting [5]).
For the compound `Cc1ccc(-c2nc(-c3cc(C(O)(C(N)=O)C(F)(F)F)ccc3C)cnc2N)cn1` (stereo not drawn) [Example 82, 2-(3-(5-amino-6-(6-methylpyridin-3-yl)pyrazin-2-yl)-4-methylphenyl)-3,3,3-trifluoro-2-hydroxypropanamide bistrifluoroacetate], the IC50 in experiment [1] (Homo sapiens) was 100 to 500 nM; in experiment [2] (setting [4]) it was less than 100 nM; in experiment [3] (setting [5]) it was less than 100 nM.
For the compound `Cc1ccc(C(O)(C(N)=O)C(F)(F)F)cc1-c1cnc(N)c(-c2ccc(C(F)(F)F)nc2)n1` (stereo not drawn) [Example 83, 2-(3-(5-amino-6-(6-(trifluoromethyl)pyridin-3-yl)pyrazin-2-yl)-4-methylphenyl)-3,3,3-trifluoro-2-hydroxypropanamide bistrifluoroacetate], the IC50 is 100 to 500 nM in experiment [1] (Homo sapiens), less than 100 nM in experiment [2] (setting [4]) and less than 100 nM in experiment [3] (setting [5]).
For the compound `Cc1ccc(C(O)(C(N)=O)C(F)(F)F)cc1-c1cnc(N)c(-c2cnc(C3CC3)s2)n1` (stereo not drawn) [Example 84, 2-(3-(5-amino-6-(2-cyclopropylthiazol-5-yl)pyrazin-2-yl)-4-methylphenyl)-3,3,3-trifluoro-2-hydroxypropanamide trifluoroacetate], the IC50 was 100 to 500 nM in experiment [1] (Homo sapiens), less than 100 nM in experiment [2] (setting [4]) and less than 100 nM in experiment [3] (setting [5]).
As to `Cc1ccc(C(O)(C(N)=O)C(F)(F)F)cc1-c1cnc(N)c(-c2ccnc(CO)c2)n1` (stereo not drawn) [Example 85, 2-(3-(5-amino-6-(2-(hydroxymethyl)pyridin-4-yl)pyrazin-2-yl)-4-methylphenyl)-3,3,3-trifluoro-2-hydroxypropanamide bistrifluoroacetate], the IC50 in experiment [1] (Homo sapiens) is 100 to 500 nM; in experiment [2] (setting [4]), less than 100 nM; in experiment [3] (setting [5]), less than 100 nM.
In the case of `Cc1ccc(C(O)(C(N)=O)C(F)(F)F)cc1-c1cnc(N)c(-c2cnn(CC3CC3)c2)n1` (stereo not drawn) [Example 86, 2-(3-(5-amino-6-(1-(cyclopropylmethyl)-1H-pyrazol-4-yl)pyrazin-2-yl)-4-methylphenyl)-3,3,3-trifluoro-2-hydroxypropanamide trifluoroacetate], the IC50 in experiment [1] (Homo sapiens), in experiment [2] (setting [4]) and in experiment [3] (setting [5]) was less than 100 nM in each case.
Consider `Cc1ccc(C(O)(C(N)=O)C(F)(F)F)cc1-c1cnc(N)c(-c2ccc(CC#N)cc2)n1` (stereo not drawn) [Example 87, 2-(3-(5-amino-6-(4-(cyanomethyl)phenyl)pyrazin-2-yl)-4-methylphenyl)-3,3,3-trifluoro-2-hydroxypropanamide trifluoroacetate], for which the IC50 in experiment [1] (Homo sapiens) is 100 to 500 nM; in experiment [2] (setting [4]) it was less than 100 nM; in experiment [3] (setting [5]), less than 100 nM.
`Cc1ccc(C(O)(C(N)=O)C(F)(F)F)cc1-c1cnc(N)c(-c2ccc(CO)cc2)n1` (stereo not drawn) [Example 88, 2-(3-(5-amino-6-(4-(hydroxymethyl)phenyl)pyrazin-2-yl)-4-methylphenyl)-3,3,3-trifluoro-2-hydroxypropanamide trifluoroacetate]: the IC50 in experiment [1] (Homo sapiens) is 100 to 500 nM; in experiment [2] (setting [4]) it was less than 100 nM; in experiment [3] (setting [5]), less than 100 nM.
`CNC(=O)c1ccc(-c2nc(-c3cc(C(O)(C(N)=O)C(F)(F)F)ccc3C)cnc2N)cc1` (stereo not drawn) [Example 89, 4-(3-amino-6-(5-(3-amino-1,1,1-trifluoro-2-hydroxy-3-oxopropan-2-yl)-2-methylphenyl)pyrazin-2-yl)-N-methylbenzamide trifluoroacetate]: the figures for the IC50 in experiment [1] (Homo sapiens), in experiment [2] (setting [4]) and in experiment [3] (setting [5]) were 100 to 500 nM, less than 100 nM and less than 100 nM, respectively.
For `Cc1ccc(C(O)(C(N)=O)C(F)(F)F)cc1-c1cnc(N)c(-c2cccc(C(C)C)c2)n1` (stereo not drawn) [Example 90, 2-(3-(5-amino-6-(3-isopropylplienyl)pyrazin-2-yl)-4-methylphenyl)-3?3,3-trifluoro-2-hydroxypropanamide trifluoroacetate], the IC50 in experiment [1] was 100 to 500 nM; in experiment [2] (setting [4]), 100 to 500 nM; in experiment [3] (setting [5]) it was less than 100 nM.
Regarding `Cc1ccc(C(O)(C(N)=O)C(F)(F)F)cc1-c1cnc(N)c(-c2ccc(C(C)(C)O)cc2)n1` (stereo not drawn) [Example 91, 2-(3-(5-amino-6-(4-(2-hydroxypropan-2-yl)phenyl)pyrazin-2-yl)-4-methylphenyl)-3,3,3-trifluoro-2-hydroxypropanamide trifluoroacetate], the IC50 in experiment [1] (Homo sapiens), in experiment [2] (setting [4]) and in experiment [3] (setting [5]) was less than 100 nM each time.

For orientation: IC50 means the concentration that gives 50% inhibition.
